The target of one assay is T1, A17 RT (Human immunodeficiency virus type 1 group M subtype B, UniProt P04585, K690N/Y768C).
T1 construct: A17 RT was employed in the assay; made in house; host or cells: bacteria
Put plainly: biochemical. Also on record: species or system HIV-1. How it is done: (§1) The assay measures the incorporation of tritiated deoxyguanosine monophosphate by recombinant HIV reverse transcriptase (HIV RTR) (or other RT) into acid-precipitable cDNA at the Km values of dGTP and poly r(C).cndot.oligo d(G)12-18.
(§2) The assays were carried out in 55 mM Tris (pH 8.2)-30 mM KCl-30 mM MgCl2 -1 mM dithiothreitol-20 μg of rC:dG 12-18 (Pharmacia) per ml-8 mM [^3 H]dGTP (New England Nuclear)-0.01% Triton X-100-50 mM ethylene glycol-bis(β-amino-ethyl ether)-N,N,N',N'-tetraacetic acid (EGTA)-1 mg of bovine serum albumin per ml. After 60 min of incubation at 37° C., acid-precipitable material was collected onto glass fiber filters by using a semiautomatic cell harvester. Bacterial cell extracts containing RT were diluted to within the linear range of the assay, and activity was determined in the presence and absence of inhibitor. Purified HIV-1 RT heterodimer produced in E. coli also served as a control.
For the double mutant assay (dm), A17 RT was employed in the assay. […] Results are measured as IC50 dm in nanomoles/liter.

In assay [1] the target is T2, recombinant HIV reverse transcriptase (HIV RTR) (Human immunodeficiency virus type 1 group M subtype B, UniProt P04585).
T2 construct: recombinant HIV reverse transcriptase (HIV RTR); made in house; host or cells: E. coli
Kind of assay: Reverse transcriptase assay (wild type). It counts as biochemical, HIV-1. On the procedure: as §1, §2

A further assay relates to HIV-1 (wild-type). Kind of assay: Cell spread assay (MT-4 T-lymphoid cells). It counts as cell-based. As to conditions: Human immunodeficiency virus 1, MT4, 72 h, read-out: CIC*95. How it is done:
Inhibition of the spread of HIV in cell culture was measured according to Nunberg, J. H. et al., J. Virol. 65, 4887 (1991 ). In this assay, MT-4 T-lymphoid cells were infected with HIV-1 (wild-type, unless otherwise indicated) by using a predetermined inoculum, and cultures were incubated for 24 h. At this time, ≤1% of the cells were positive by indirect immunofluorescence. Cells were then extensively washed and distributed into 96-well culture dishes. Serial twofold dilutions of inhibitor were added to the wells, and cultures were continued for 3 additional days. At 4 days postinfection, 100% of the cells in control cultures were infected. HIV-1 p24 accumulation was directly correlated with virus spread. The cell culture inhibitory concentration was defined as the inhibitor concentration in nanomoles/liter which reduced the spread of infection by at least 95%, or CIC95.

Setting [2] is: Table I, wild-type RT, read-out: IC*50 wt.
[3] abbreviates: Table II, wild-type RT, read-out: IC*50 wt.
Where [4] appears, read: Table I, concentration reducing spread of infection by at least 95%, MT-4 cells.

The source of these data is US5519021A, “Benzoxazinones as inhibitors of HIV reverse transcriptase” (priority 1995, dated 1996).

Each structure is given as a SMILES string. Read-outs that look alike come from different tables or passages of the source.

Regarding `O=C1Nc2ccc(Cl)cc2C(C#CCN2CCCC2)(C(F)(F)F)O1` (racemic) [Compound 7, (+/-) 6-Chloro-4-(1,1,1-trifluoromethyl)-4-[(3-(1-pyrrolidinyl))-1-propynyl] -1,4-dihydro-2H-3,1-benzoxazin-2-one], the IC50 against A17 RT worked out at 3460 nM; in assay [1] (setting [2]) it was 91 nM.
Turning to `CN(C)CC#CC1(C2CC2)OC(=O)Nc2ccc(Cl)cc21` (stereo not drawn) [Compound 31], the values for the IC50 (on A17 RT; in assay [1] (setting [2])) were 4250 nM and 410 nM, respectively.
With `CCCCC1(c2ccccc2)OC(=S)Nc2ccc(Cl)cc21` (stereo not drawn) [Compound 42], in assay [1] (setting [3]), the IC50 amounted to 1450 nM.
With `C=CCC1(C(F)(F)F)OC(=O)Nc2ccc(Cl)cc21` (stereo not drawn) [Compound 25], the IC50 is greater than 100000 nM on A17 RT and 220 nM in assay [1] (setting [2]).
Regarding `S=C1Nc2ccc(Cl)cc2C(c2ccccc2)(C2CC2)O1` (stereo not drawn) [Compound 46], the IC50 against A17 RT was greater than 300000 nM; in assay [1] (setting [3]) it was 41 nM.
In the case of `C=CCCC1(C(F)(F)F)OC(=O)Nc2ccc(Cl)cc21` (racemic) [Compound 15, (+/-) 4-(1,1,1,-trifluoromethyl)-4-(1-buten-4-yl)-6-chloro-1,4-dihydro-2H-3,1-benzoxazin-2-one], the figures for the IC50 (against A17 RT; in assay [1] (setting [2])) were greater than 100000 nM and 29 nM, respectively.
On the same counts, the results for `O=C1Nc2ccc(Cl)cc2C(c2ccccc2)(C(F)(F)F)O1` (stereo not drawn) [Compound 20] are 100000 nM and 145 nM.
On to `CCCC1(C2CC2)OC(=S)Nc2ccc(Cl)cc21` (stereo not drawn) [Compound 40], for which the IC50 stood at 29000 nM at A17 RT and 48 nM in assay [1] (setting [3]).
Regarding `CCCC1(C2CC2)OC(=O)Nc2ccc(Cl)cc21` (stereo not drawn) [Compound 28], the IC50 worked out at 114000 nM at A17 RT and 307 nM in assay [1] (setting [2]). The IC95 in the assay with HIV-1 (wild-type) (setting [4]) amounted to 1500 nM.
As for `CCC1(c2ccccc2)OC(=O)Nc2ccc(Cl)cc21` (stereo not drawn) [Compound 33], the IC50 in assay [1] (setting [2]) was 300 nM.
For the molecule `CN(C)CC#CC1(C(F)(F)F)OC(=O)Nc2ccc(Cl)cc21` (stereo not drawn) [Compound 24], the IC50 against A17 RT worked out at 1950 nM; in assay [1] (setting [2]), 43 nM. For the same molecule, the IC95 with HIV-1 (wild-type) (setting [4]) was found to be 100 nM.
In the case of `O=C1Nc2ccc(Cl)cc2C(CCc2ccccc2)(C(F)(F)F)O1` (stereo not drawn) [Compound 22], the IC50 on A17 RT amounted to 3650 nM; in assay [1] (setting [2]), 55 nM.
On the same counts, the results for `Cc1ccc(C#CC2(C(F)(F)F)OC(=O)Nc3ccc(Cl)cc32)cc1` (stereo not drawn) [Compound 8] are 8470 nM and 163 nM.
For `C=CC1(C(F)(F)F)OC(=O)Nc2ccc(Cl)cc21` (stereo not drawn) [Compound 23], the results for the IC50 (on A17 RT; in assay [1] (setting [2])) were greater than 30000 nM and 1300 nM, respectively.
On the same counts, the results for `O=C1Nc2ccc(Cl)cc2C(C#Cc2ccccc2[N+](=O)[O-])(C(F)(F)F)O1` (stereo not drawn) [Compound 6] are 19000 nM and 1700 nM.
For `COc1ccccc1C#CC1(C(F)(F)F)OC(=O)Nc2ccc(Cl)cc21` (stereo not drawn) [Compound 11], the IC50 against A17 RT amounted to 270 nM; in assay [1] (setting [2]), 16 nM. Further, the IC95 in the assay on HIV-1 (wild-type) (setting [4]) turned out to be 6 nM.
For `COc1cccc(C#CC2(C(F)(F)F)OC(=O)Nc3ccc(Cl)cc32)c1` (stereo not drawn) [Compound 10], the IC50 against A17 RT was determined as 390 nM; in assay [1] (setting [2]), 18 nM.
Regarding `CCC1(C2CC2)OC(=S)Nc2ccc(Cl)cc21` (stereo not drawn) [Compound 39], the IC50 at A17 RT was greater than 300000 nM; in assay [1] (setting [3]), 510 nM.
On to `O=C1Nc2ccc(Cl)cc2[C@@](C#Cc2ccccc2)(C(F)(F)F)O1` [4(-), (-) 6-Chloro-4-phenylethynyl-4-trifluoromethyl-1,4-dihydro-2H-3,1-benzoxazin-2-one], for which the IC50 against A17 RT came to 69 nM; in assay [1], 8.6 nM. Besides, the IC95 in the assay with HIV-1 (wild-type) was found to be 12 nM.
In the case of `O=C1Nc2ccc(Cl)cc2C(Sc2ccccc2)(C(F)(F)F)O1` (stereo not drawn) [Compound 21], the IC50 worked out at 125000 nM at A17 RT and 860 nM in assay [1] (setting [2]).
For `CCCC1(c2ccccc2)OC(=O)Nc2ccc(Cl)cc21` (stereo not drawn) [Compound 32], the IC50 in assay [1] (setting [2]) stood at 5400 nM.
As for `CCC1(C(F)(F)F)OC(=O)Nc2ccc(Cl)cc21` (stereo not drawn) [Compound 17], the figures for the IC50 (at A17 RT; in assay [1] (setting [2])) were greater than 100000 nM and 2300 nM, respectively.
For the molecule `C#CC1(C(F)(F)F)OC(=O)Nc2ccc(Cl)cc21` (racemic) [Compound 26, (+/-) 6-Chloro-4-ethynyl-4-(1,1,1-trifluoromethyl)-1,4-dihydro-2H-3,1-benzoxazin-2-one], the figures for the IC50 (against A17 RT; in assay [1] (setting [2])) were greater than 100000 nM and 0.24 nM, respectively.
On the same counts, the results for `C#CC1(c2ccccc2)OC(=O)Nc2ccc(Cl)cc21` (stereo not drawn) [Compound 35] are greater than 300000 nM and 650 nM.
For `N#Cc1ccccc1C#CC1(C(F)(F)F)OC(=O)Nc2ccc(Cl)cc21` (racemic) [Compound 2, (+/-) 6-Chloro-4-(2-cyanophenyl)ethynyl-4-(1,1,1-trifluoromethyl)-1,4-dihydro-2H-3,1-benzoxazin-2-one], the values for the IC50 (on A17 RT; in assay [1] (setting [2])) were 480 nM and 25 nM, respectively. In the assay on HIV-1 (wild-type) (setting [4]), the IC95 stood at 6 nM.
On to `S=C1Nc2ccc(Cl)cc2C(C2CC2)(C2CC2)O1` [Compound 38], for which the IC50 is greater than 300000 nM at A17 RT and 136 nM in assay [1] (setting [3]).
With `CCCC1(CC)OC(=O)Nc2ccc(Cl)cc21` (stereo not drawn) [Compound 36], the IC50 on A17 RT is greater than 300000 nM; in assay [1] (setting [2]), 52 nM.
On the same counts, the results for `CCCC1(C(C)(C)C)OC(=O)Nc2ccc(Cl)cc21` (stereo not drawn) [Compound 37] are greater than 100000 nM and 5300 nM.
For the molecule `COCC#CC1(C2CC2)OC(=O)Nc2ccc(Cl)cc21` (stereo not drawn) [Compound 30], the IC50 came to 3000 nM against A17 RT and 410 nM in assay [1] (setting [2]).
On the same counts, the results for `O=C1Nc2ccc(Cl)cc2C(CCCCl)(C(F)(F)F)O1` (stereo not drawn) [Compound 14] are 65000 nM and 130 nM.
With `O=C1Nc2ccc(Cl)cc2[C@](C#Cc2ccccc2)(C(F)(F)F)O1` [3(+), (+) 6-Chloro-4-phenylethynyl-4-trifluoromethyl 1,4-dihydro-2H-3,1-benzoxazin-2-one], the IC50 on A17 RT worked out at 37000 nM; in assay [1], 2900 nM. For the same molecule, the IC95 with HIV-1 (wild-type) (setting [4]) is greater than 200 nM.
Regarding `O=C1Nc2ccc(Cl)cc2C(C#Cc2ccccc2)(C(F)(F)F)O1` (racemic) [12(+/-), (±) 6-Chloro-4-phenylethynyl-4-trifluoromethyl-1,4-dihydro-2H-3,1-benzoxazin-2-one], the figures for the IC50 (against A17 RT; in assay [1] (setting [2])) were 280 nM and 12 nM, respectively. In the assay on HIV-1 (wild-type) (setting [4]), the IC95 stood at 25 nM.
Take `CCCC1(c2ccccc2)OC(=S)Nc2ccc(Cl)cc21` (stereo not drawn) [Compound 43]: the IC50 in assay [1] (setting [3]) came out at 610 nM.
In the case of `CCC1(c2ccccc2)OC(=S)Nc2ccc(Cl)cc21` (stereo not drawn) [Compound 44], the IC50 against A17 RT is greater than 300000 nM; in assay [1] (setting [3]) it was 15 nM. Further, the IC95 in the assay on HIV-1 (wild-type) (Table II, concentration reducing spread of infection by at least 95%, MT-4 cells) was found to be 100 nM.
Take `O=C1Nc2ccc(Cl)cc2C(C#Cc2ccccc2)(C(F)(F)Cl)O1` (racemic) [Compound 5, (+/-) 4-(1-Chloro-1,1-difluoromethyl)-4-(2-phenylethynyl)-6-chloro-1,4-dihydro-2H-3,1-benzoxazin-2-one]: the IC50 on A17 RT was 350 nM; in assay [1] (setting [2]) it was 12 nM.
Take `CCCC1(C2CCCC2)OC(=S)Nc2ccc(Cl)cc21` (stereo not drawn) [Compound 41]: the values for the IC50 (against A17 RT; in assay [1] (setting [3])) were greater than 300000 nM and 1400 nM, respectively.
With `CCC1(CC)OC(=O)Nc2ccc(Cl)cc21` [Compound 34], the IC50 was greater than 300000 nM against A17 RT and 16500 nM in assay [1] (setting [2]).
On the same counts, the results for `COC(=O)/C=C(/OC)C1(C(F)(F)F)OC(=O)Nc2ccc(Cl)cc21` (stereo not drawn) [Compound 13] are 100000 nM and 390 nM.
On the same counts, the results for `O=C1Nc2ccc(Cl)cc2C(C#CCO)(C(F)(F)F)O1` (stereo not drawn) [Compound 27] are greater than 100000 nM and 550 nM.
Turning to `CCC1(CC)OC(=S)Nc2ccc(Cl)cc21` [Compound 45], the IC50 at A17 RT was greater than 300000 nM; in assay [1] (setting [3]), 560 nM.
Turning to `C#CC1(CCC)OC(=O)Nc2ccc(Cl)cc21` (stereo not drawn) [Compound 29], the IC50 against A17 RT is greater than 100000 nM; in assay [1] (setting [2]), 1900 nM.
As to `COCC#CC1(C(F)(F)F)OC(=O)Nc2ccc(Cl)cc21` (stereo not drawn) [Compound 18], the IC50 on A17 RT was 2650 nM; in assay [1] (setting [2]), 15 nM. The IC95 in the assay with HIV-1 (wild-type) (setting [4]) was 50 nM.
Regarding `COc1ccc(C#CC2(C(F)(F)F)OC(=O)Nc3ccc(Cl)cc32)cc1` (stereo not drawn), the IC50 turned out to be 4100 nM at A17 RT and 58 nM in assay [1] (setting [2]).
On the same counts, the results for `CCCCC1(C(F)(F)F)OC(=O)Nc2ccc(Cl)cc21` (stereo not drawn) [Compound 19] are 25000 nM and 24 nM.
